The values that follow come from ChEMBL document CHEMBL1142222, “A-803467, a potent and selective Nav1.8 sodium channel blocker, attenuates neuropathic and inflammatory pain in the rat” (Proc Natl Acad Sci U S A, 2007).

One test concerns Rattus norvegicus. The test is described as follows: Analgesic activity in ip dosed rat chronic constriction injury model of mechanical allodynia. It is filed as functional.
Test [1] deals with Sodium channel protein type 10 subunit alpha (Rattus norvegicus, UniProt Q62968). Nature of the test: Inhibition of Nav1.8 channel in rat dorsal root ganglion neurons assessed as blockade of TTX-R current by patch clamp method. It is filed as tissue-based.

SMILES strings stand for the structures. Where only a bound is given, the exact number is not on record here.

Sequence of Sodium channel protein type 10 subunit alpha (Q62968 whole entry): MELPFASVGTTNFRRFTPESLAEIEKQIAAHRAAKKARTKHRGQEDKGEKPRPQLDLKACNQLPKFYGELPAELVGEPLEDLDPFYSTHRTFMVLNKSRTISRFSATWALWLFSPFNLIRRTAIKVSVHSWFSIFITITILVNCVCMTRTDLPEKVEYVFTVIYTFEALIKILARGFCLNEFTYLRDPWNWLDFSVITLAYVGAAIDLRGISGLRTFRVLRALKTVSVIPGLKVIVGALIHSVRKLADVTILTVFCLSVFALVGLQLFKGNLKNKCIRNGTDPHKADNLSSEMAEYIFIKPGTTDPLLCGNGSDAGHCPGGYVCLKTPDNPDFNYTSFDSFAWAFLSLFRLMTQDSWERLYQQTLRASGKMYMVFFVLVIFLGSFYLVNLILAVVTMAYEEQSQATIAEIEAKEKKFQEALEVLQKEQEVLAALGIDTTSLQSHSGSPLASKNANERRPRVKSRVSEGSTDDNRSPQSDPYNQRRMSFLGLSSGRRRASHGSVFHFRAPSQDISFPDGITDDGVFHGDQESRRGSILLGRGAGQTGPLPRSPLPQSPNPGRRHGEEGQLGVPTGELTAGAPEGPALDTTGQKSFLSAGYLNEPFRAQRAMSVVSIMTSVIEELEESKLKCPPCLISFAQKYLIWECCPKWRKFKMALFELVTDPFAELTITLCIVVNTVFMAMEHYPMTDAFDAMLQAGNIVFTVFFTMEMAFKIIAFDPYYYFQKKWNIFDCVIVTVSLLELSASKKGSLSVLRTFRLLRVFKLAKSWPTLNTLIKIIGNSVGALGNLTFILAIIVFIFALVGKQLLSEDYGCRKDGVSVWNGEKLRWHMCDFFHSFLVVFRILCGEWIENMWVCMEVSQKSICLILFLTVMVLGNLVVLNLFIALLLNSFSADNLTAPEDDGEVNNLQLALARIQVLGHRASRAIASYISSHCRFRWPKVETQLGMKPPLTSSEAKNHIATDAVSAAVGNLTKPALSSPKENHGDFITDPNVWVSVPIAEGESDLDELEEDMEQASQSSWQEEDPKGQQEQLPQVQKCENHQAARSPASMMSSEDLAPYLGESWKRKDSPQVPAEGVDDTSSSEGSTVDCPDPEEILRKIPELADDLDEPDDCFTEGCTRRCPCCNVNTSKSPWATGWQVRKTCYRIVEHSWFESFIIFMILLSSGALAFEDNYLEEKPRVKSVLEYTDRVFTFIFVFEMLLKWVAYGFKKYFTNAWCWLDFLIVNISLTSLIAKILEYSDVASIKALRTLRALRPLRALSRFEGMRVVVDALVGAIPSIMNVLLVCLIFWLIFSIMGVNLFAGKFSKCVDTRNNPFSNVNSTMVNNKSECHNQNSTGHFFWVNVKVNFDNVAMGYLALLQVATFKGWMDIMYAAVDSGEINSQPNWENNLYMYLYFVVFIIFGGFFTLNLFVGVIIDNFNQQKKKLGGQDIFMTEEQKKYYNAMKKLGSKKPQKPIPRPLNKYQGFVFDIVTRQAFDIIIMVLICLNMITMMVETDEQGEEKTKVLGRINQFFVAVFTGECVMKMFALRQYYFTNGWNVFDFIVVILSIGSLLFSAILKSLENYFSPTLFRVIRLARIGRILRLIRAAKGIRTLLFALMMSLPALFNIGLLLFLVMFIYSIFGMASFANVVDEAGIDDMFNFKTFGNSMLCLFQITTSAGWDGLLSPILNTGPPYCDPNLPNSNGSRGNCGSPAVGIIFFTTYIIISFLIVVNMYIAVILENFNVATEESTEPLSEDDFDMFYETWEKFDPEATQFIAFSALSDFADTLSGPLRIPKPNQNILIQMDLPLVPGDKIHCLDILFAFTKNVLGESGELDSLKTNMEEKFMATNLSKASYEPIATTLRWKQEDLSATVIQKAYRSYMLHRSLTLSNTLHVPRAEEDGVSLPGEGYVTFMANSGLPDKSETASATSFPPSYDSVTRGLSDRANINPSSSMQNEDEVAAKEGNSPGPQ

The compound `Nc1nnc(-c2cccc(Cl)c2Cl)c(N)n1` [LAMOTRIGINE] came in with a 50% effective dose (ED50) in the test with Rattus norvegicus of 20 mg/kg. Still for that read-out and setting: the result for `NCC1(CC(=O)O)CCCCC1` [GABAPENTIN] reads 40 mg/kg. For `Cc1cccc(C)c1OCC(C)N` (stereo not drawn) [MEXILETINE], the IC50 in test [1] is above 30 µM.
